According to ChEMBL document CHEMBL3991601, “The target landscape of clinical kinase drugs” (Science, 2017):
The source made the active and inactive calls.

Key:
[1] = biological target: Ribosomal protein S6 kinase beta-1 (Homo sapiens, UniProt P23443)
[2] = biological target: Myosin-14 (Homo sapiens, UniProt Q7Z406)
[3] = biological target: T1, General transcription and DNA repair factor IIH helicase subunit XPD (Homo sapiens, UniProt P18074); settings: read-out: Kd apparent; k-562, colo 205, sk-n-be(2) and mv-4-11
T1 sequence (P18074 whole entry): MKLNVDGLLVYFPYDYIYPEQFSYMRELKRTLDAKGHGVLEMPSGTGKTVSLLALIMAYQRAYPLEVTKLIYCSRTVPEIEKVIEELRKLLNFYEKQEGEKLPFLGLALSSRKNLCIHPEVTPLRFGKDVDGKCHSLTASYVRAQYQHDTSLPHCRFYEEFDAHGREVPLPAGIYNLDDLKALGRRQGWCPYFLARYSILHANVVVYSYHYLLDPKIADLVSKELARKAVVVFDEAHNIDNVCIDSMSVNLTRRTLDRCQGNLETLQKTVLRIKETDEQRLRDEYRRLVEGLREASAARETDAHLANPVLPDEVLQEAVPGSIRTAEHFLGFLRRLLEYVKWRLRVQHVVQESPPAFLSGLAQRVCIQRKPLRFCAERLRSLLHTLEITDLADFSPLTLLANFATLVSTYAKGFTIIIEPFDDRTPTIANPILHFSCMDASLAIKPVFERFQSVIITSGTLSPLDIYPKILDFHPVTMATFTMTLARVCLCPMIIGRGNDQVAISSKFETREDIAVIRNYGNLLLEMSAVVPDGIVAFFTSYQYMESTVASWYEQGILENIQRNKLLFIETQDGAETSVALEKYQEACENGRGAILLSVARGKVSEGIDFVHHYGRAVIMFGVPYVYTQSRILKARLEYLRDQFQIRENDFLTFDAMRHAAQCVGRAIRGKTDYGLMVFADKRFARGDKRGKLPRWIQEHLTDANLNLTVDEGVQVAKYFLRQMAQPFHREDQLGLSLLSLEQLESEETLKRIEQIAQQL

[4] = biological target: T2, Rab-like protein 3 (Homo sapiens, UniProt Q5HYI8)
T2 sequence (Q5HYI8 whole entry): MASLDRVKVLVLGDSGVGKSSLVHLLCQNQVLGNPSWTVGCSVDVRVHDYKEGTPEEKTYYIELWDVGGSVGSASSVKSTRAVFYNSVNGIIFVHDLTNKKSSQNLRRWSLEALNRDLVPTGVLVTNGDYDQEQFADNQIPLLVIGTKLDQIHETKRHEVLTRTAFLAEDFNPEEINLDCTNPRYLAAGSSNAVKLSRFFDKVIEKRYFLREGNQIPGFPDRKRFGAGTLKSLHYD

[5] = biological target: T3, ATP-dependent RNA helicase DDX1 (Homo sapiens, UniProt Q92499)
T3 sequence (Q92499 whole entry): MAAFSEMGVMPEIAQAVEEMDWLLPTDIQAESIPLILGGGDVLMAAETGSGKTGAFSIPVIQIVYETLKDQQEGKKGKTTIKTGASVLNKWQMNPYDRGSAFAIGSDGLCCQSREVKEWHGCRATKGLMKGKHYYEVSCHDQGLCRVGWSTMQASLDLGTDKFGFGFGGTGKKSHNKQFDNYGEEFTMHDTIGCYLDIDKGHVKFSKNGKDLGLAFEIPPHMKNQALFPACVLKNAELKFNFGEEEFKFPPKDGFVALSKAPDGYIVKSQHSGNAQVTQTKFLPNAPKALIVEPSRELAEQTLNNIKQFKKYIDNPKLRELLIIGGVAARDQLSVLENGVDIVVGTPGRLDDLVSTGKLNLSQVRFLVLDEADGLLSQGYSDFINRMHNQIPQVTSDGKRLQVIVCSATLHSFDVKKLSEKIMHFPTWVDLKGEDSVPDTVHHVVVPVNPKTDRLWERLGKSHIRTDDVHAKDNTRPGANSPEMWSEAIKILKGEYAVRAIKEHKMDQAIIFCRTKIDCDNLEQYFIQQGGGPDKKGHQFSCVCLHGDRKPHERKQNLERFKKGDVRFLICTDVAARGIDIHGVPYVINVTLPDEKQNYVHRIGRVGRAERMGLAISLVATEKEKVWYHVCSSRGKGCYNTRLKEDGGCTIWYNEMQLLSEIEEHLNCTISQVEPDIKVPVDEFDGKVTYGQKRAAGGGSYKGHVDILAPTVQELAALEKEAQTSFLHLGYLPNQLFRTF

[6] = biological target: Bone morphogenetic protein receptor type-1B (Homo sapiens, UniProt O00238)
[7] = biological target: Ephrin type-A receptor 5 (Homo sapiens, UniProt P54756)
[8] = biological target: T4, Septin-9 (Homo sapiens, UniProt Q9UHD8)
T4 sequence (Q9UHD8 whole entry): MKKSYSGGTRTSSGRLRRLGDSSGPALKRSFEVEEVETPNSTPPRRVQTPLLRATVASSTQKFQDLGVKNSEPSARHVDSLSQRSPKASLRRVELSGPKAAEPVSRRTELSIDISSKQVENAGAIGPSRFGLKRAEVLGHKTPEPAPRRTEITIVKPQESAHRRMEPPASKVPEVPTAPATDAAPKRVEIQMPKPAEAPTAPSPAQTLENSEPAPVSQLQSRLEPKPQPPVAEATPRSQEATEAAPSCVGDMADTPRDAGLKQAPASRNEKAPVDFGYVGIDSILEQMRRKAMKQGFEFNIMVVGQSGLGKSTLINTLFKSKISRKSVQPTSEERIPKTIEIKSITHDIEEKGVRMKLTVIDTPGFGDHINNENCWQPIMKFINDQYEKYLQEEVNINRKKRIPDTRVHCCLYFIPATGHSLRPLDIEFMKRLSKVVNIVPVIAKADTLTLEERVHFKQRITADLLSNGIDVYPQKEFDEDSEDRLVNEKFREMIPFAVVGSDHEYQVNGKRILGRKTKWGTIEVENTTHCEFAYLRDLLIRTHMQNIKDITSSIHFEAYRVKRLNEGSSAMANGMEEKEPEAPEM
Also: in the data inactive means no Kd found up to 30 µM.

Myosin-14, sequence (Q7Z406 whole entry): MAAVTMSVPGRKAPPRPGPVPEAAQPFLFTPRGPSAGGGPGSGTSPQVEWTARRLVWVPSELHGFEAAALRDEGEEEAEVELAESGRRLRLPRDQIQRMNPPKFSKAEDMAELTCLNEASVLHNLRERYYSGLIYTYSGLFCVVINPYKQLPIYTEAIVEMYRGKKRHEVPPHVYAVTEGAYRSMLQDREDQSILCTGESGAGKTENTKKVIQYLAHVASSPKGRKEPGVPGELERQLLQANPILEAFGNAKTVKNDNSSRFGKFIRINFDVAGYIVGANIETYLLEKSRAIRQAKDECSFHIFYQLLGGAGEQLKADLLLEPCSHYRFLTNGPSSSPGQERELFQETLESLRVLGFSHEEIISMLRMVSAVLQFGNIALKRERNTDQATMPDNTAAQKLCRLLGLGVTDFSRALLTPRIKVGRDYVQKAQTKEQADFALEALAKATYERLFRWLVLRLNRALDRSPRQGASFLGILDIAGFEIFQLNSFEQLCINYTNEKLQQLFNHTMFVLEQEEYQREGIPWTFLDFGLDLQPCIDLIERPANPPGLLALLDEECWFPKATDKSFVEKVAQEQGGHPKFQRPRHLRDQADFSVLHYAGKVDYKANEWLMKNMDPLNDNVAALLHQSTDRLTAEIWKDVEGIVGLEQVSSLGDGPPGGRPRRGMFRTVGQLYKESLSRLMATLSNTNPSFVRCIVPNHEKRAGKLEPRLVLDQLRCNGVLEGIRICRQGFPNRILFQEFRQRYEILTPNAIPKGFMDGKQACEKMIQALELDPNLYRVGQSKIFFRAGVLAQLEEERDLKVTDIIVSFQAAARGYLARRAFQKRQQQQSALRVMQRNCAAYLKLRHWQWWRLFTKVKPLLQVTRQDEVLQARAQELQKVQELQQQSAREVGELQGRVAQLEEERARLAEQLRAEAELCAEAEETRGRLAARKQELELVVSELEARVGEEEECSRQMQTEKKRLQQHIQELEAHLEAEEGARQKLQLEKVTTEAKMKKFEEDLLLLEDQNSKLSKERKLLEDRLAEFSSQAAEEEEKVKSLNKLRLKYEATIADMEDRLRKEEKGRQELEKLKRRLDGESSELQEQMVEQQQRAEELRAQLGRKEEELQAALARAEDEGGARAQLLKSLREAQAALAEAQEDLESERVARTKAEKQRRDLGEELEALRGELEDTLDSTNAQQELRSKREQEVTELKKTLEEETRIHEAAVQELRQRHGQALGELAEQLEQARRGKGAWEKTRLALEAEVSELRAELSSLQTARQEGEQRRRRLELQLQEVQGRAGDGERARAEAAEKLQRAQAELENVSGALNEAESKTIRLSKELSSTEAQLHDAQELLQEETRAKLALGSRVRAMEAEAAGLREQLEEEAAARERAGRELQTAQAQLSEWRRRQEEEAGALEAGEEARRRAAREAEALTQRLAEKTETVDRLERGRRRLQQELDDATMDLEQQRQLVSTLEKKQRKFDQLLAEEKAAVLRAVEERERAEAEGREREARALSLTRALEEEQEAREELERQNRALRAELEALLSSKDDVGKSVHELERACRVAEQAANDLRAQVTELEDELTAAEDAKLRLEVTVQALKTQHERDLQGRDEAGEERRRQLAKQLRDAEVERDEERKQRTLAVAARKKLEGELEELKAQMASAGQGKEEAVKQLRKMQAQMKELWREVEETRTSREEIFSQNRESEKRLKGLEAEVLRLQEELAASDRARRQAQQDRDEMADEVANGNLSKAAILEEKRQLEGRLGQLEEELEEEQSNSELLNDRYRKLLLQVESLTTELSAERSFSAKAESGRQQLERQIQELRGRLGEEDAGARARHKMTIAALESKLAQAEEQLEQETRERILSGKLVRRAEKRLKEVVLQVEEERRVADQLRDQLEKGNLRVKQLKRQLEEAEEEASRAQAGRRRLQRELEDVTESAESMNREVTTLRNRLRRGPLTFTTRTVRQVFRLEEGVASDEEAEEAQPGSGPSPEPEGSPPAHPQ
Bone morphogenetic protein receptor type-1B, sequence (O00238 whole entry): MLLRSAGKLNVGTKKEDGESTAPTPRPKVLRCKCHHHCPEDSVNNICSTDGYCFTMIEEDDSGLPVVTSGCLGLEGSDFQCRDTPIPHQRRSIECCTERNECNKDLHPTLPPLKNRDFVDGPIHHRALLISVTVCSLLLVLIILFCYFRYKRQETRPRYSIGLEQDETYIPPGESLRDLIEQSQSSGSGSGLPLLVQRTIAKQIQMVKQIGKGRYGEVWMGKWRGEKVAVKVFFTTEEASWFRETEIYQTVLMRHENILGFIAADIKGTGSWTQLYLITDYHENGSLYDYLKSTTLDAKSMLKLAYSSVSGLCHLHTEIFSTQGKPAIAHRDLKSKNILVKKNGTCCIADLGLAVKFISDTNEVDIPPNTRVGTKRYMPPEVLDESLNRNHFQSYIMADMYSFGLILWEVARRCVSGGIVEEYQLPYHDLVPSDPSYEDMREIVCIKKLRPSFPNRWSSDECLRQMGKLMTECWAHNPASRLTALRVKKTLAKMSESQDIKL
Ephrin type-A receptor 5, sequence (P54756 whole entry): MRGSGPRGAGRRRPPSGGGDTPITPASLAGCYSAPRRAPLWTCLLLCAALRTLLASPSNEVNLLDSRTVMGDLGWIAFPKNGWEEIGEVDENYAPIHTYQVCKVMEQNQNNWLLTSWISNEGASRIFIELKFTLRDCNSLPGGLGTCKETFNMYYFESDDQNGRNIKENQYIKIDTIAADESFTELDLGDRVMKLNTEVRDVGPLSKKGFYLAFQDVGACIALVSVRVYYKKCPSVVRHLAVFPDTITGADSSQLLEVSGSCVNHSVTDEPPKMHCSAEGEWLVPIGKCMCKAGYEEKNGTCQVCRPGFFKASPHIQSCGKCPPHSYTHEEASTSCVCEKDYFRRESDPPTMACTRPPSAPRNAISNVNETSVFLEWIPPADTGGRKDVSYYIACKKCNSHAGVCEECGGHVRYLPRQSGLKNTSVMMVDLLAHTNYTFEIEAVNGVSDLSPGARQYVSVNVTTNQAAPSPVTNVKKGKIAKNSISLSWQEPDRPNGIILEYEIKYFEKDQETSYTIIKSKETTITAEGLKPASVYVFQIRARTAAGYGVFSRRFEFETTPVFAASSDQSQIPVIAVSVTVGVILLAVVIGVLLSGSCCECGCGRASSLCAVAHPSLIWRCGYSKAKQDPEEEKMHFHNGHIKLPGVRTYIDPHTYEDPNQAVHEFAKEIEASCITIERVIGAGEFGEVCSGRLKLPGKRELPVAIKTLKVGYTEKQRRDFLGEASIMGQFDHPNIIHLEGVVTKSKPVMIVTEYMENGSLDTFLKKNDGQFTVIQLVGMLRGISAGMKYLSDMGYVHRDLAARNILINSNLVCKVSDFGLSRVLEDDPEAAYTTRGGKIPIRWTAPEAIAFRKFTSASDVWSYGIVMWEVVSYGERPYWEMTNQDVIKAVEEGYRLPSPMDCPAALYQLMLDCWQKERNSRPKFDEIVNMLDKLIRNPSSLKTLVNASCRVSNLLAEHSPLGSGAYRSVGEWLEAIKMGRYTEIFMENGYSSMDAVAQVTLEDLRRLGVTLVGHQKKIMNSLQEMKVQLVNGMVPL
Ribosomal protein S6 kinase beta-1, sequence (P23443 whole entry): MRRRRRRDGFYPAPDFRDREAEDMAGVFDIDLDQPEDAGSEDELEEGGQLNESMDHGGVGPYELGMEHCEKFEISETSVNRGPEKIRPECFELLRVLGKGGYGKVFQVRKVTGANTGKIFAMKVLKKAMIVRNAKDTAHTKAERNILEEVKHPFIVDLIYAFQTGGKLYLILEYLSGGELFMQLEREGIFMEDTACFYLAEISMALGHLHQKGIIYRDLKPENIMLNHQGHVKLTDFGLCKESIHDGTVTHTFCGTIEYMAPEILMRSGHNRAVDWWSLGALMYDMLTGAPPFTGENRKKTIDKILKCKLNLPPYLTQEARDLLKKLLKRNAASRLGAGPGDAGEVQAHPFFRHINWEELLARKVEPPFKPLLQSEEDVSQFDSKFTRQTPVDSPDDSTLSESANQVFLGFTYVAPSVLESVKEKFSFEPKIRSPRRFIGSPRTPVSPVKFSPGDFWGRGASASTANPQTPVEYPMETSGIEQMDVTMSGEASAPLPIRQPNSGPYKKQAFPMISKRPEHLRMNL

Row | Kd [1] | Kd [2] | Kd [3] | Kd [4] | Kd [5] | Kd [6] | Kd [7] | Kd [8] | SMILES
1 | > 30 µM (inactive) | > 30 µM (inactive) | > 30 µM (inactive) | > 30 µM (inactive) | > 30 µM (inactive) | > 30 µM (inactive) | > 30 µM (inactive) | > 30 µM (inactive) | CC(C)Nc1cc(-c2c[nH]c(C(=O)N[C@H](CO)c3cccc(Cl)c3)c2)c(Cl)cn1 [ULIXERTINIB]
2 | > 30 µM (inactive) | > 30 µM (inactive) | > 30 µM (inactive) | > 30 µM (inactive) | > 30 µM (inactive) | > 30 µM (inactive) | > 30 µM (inactive) | > 30 µM (inactive) | CCCS(=O)(=O)Nc1ccc(F)c(C(=O)c2c[nH]c3ncc(-c4ccc(Cl)cc4)cc23)c1F [VEMURAFENIB]
3 | > 30 µM (inactive) | > 30 µM (inactive) | > 30 µM (inactive) | > 30 µM (inactive) | > 30 µM (inactive) | > 30 µM (inactive) | > 30 µM (inactive) | > 30 µM (inactive) | O=C(Nc1ccc(-c2ccnc(Nc3ccc(N4CCOCC4)cc3)n2)cc1)C1CCCN1 (centres undefined) [XL-019]
